# Results published in patent publication US20040242459A1 (priority 2001, published 2004).
# Marks after values point to notes of the source that are not given here.
# Tests used:
# [1] = target: T1, recombinant human PPARα (GST-PPARα) (Homo sapiens, UniProt Q07869); test: Scintillation Proximity Assay, displacement of [3H2]Compound A from PPARα; type: binding; details: human PPARα binding; read-out: IC50 (μM: SPA or BND) Alpha
# T1 construct: The full length human cDNAs for PPARδ and PPARα were subcloned into the pGEX-KT expression vector; made in house; host or cells: E. coli
# T1 sequence (Q07869 1-468): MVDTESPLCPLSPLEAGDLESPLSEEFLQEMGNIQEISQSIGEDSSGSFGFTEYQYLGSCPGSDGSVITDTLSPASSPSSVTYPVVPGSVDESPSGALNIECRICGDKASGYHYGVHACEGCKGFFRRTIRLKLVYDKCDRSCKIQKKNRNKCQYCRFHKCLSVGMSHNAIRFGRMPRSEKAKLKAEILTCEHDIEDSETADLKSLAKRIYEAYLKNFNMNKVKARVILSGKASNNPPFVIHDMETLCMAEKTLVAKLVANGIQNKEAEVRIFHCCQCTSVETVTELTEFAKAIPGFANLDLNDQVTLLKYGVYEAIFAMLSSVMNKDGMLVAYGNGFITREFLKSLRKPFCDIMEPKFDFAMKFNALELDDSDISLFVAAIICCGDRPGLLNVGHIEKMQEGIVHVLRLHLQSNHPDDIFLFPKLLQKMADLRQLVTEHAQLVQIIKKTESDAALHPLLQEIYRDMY
# Source text: As an approach to identifying human PPAR agonists, a Scintillation Proximity Assay was used to characterize PPAR-γ, PPAR-δ, and PPAR-α ligands.
# Human PPARγ2, human PPARδ and human PPARα were expressed as GST-fusion proteins in E. coli. The full length human cDNA for PPARγ 2 was subcloned into the pGEX-2 T expression vector (Amersham Pharmacia Biotech, Inc.). The full length human cDNAs for PPARδ and PPARα were subcloned into the pGEX-KT expression vector (Amersham Pharmacia Biotech, Inc.). E. coli containing the respective plasmids were propagated, induced, and harvested by centrifugation. The resuspended pellet was broken in a French press and debris removed by centrifugation. Recombinant human PPAR receptors were purified by affinity chromatography on glutathione sepharose. After application to the column, and one wash, receptor was eluted with glutathione. Glycerol (10%) was added to stabilize the receptor and aliquots were stored at −80° C.
# After incubation for ˜16 h at 15° C. with shaking, the assay plates were counted in a Packard Topcount with quench correction.
# [2] = test system: adjuvant-induced arthritis in female Lewis rats
# Procedure: Nine groups of 10 rats each were injected with an emulsion containing 0.5 mg of Mycobacterium butyricum in 0.1 ml of light mineral oil, and a negative control group of 10 rats was not injected with adjuvant. Body weights, primary (injected) and contralateral (non-injected) paw volumes (determined by mercury displacement plethysmography) and lateral radiographs (obtained under Ketamine and Xylazine anesthesia) were determined before (day-1) and at various time points including 21 days following adjuvant injection. The rats were anesthetized with an intramuscular injection of 0.03-0.1 ml of a combination of Ketamine (87 mg/kg) and Xylazine (13 mg/kg) for radiographs and injection of adjuvant. Lateral to medial radiographs were made of both hind paws on days 0 and 21 for using the Faxitron (45 kVp, 30 seconds or 45 kVp, 1 second) and Kodak X-OMAT TL film, and were developed in an automatic processor. […] Specific criteria were used to establish the numerical grade of severity for each radiographic change. The maximum possible score per foot was 26. Compounds or vehicle were administered prophylactically beginning post injection of adjuvant and continuing for 21 days. The Compounds were prepared weekly, refrigerated in the dark until used, and vortex mixed immediately prior to administration. […] The liver, thymus and spleens of all rats were removed and weighed and both hind paws were removed and radiographed.
# Two-factor (‘treatment’ and ‘time’) analysis of variance with repeated measures on ‘time’ were applied to the percent changes for body weight and foot volumes and to the rank-transformed radiographic total scores. A post hoc Dunnett's test was conducted to compare the effect of treatments to vehicle. A one-way analysis of variance was applied to the thymic and spleen weights followed by the Dunnett's test to compare the effect of treatments to vehicle.
# Compounds or vehicle (0.5% Methocel in sterile water) were administered by oral gavage once daily for 21 days following induction of arthritis in female Lewis rats via the sub plantar injection of 0.1 ml of light mineral oil containing 0.5 mg of Mycobacterium butyricum. Control animals were not injected with adjuvant. Body weights were measured 1 day prior to (i.e. day 0) and at 14 and 21 days post induction of arthritis. The data in Table 1 represent the mean increase or decrease in body weight ±1 standard deviation for groups of 9 to 10 animals.
# Compounds or vehicle (0.5% Methocel in sterile water) were administered by oral gavage once daily for 21 days following induction of arthritis in female Lewis rats via the sub plantar injection of 0.1 ml of light mineral oil containing 0.5 mg of Mycobacterium butyricum. Control animals were not injected with adjuvant.
# (§1) Injected foot volumes were measured by mercury displacement plethysmography prior to induction of arthritis, and on days 4, 14 and 21 post induction of arthritis. The data represent the mean increase in foot volume ±1 standard deviation for groups of 9 to 10 animals. The extent of paw swelling in compound-treated animals was compared to the mean of that in the vehicle-treated group, and percentage inhibition was calculated for each dose level of compound.
# as §1, with “Contralateral foot” for “Injected foot”, “prior to,” for “prior to induction of arthritis,”, “and at” for “and on”, “days” for “days 4,”
# […] Data represent the mean weights of organs in mg ±1 standard deviation for groups of 9 to 10 animals.
# Total radiographic scores were derived from examination of lateral radiographs obtained prior to, and on day 21 post induction of arthritis.
# [3] = injected paw, same doses p.o. q.d.
# [4] = weight at necropsy, day of euthanasia 21 (Compound 1, indomethacin) or 15 (Compounds 2-6), mean ± SD
structure (smiles),measurement,setting,value
"CCCc1cc(Oc2ccccc2)ccc1OCCc1cc2cc(CC(=O)O)ccc2[nH]1 [Compound 2, {2-[2-(4-phenoxy-2-propylphenoxy)ethyl]-1H-indol-5-yl}acetic acid]",IC50,[1],1.48 µM
same,Change in Secondary Foot Volume Day 14-0,"[2]; contralateral paw, p.o. q.d., Compounds 1, 2, 4, 6 30 mg/kg/day, Compound 3 50, Compound 5 100, indomethacin 2, mean ± SD",786 ± 220 µL
same,Secondary Foot Volume % Inhibition Compared to Vehicle Day 14-0,"[2]; contralateral paw, same doses p.o. q.d.",0%
same,Change in Primary Foot Volume Day 4-0,"[2]; injected paw, p.o. q.d., Compounds 1, 2, 4, 6 30 mg/kg/day, Compound 3 50, Compound 5 100, indomethacin 2, mean ± SD",1642 ± 386 µL
same,Primary Foot Volume % Inhibition Compared to Vehicle Day 4-0,[2]; [3],18.6%
same,Primary Foot Volume % Inhibition Compared to Vehicle Day 14-0,[2]; [3],21.3%
same,Change in Primary Foot Volume Day 14-0,"[2]; injected paw, same doses p.o. q.d., mean ± SD",1875 ± 418 µL
same,change in body weight Day 14-0,"[2]; p.o. q.d., Compounds 1, 2, 4, 6 30 mg/kg/day, Compound 3 50, Compound 5 100, indomethacin 2 mg/kg/day, mean ± SD",0.8 ± 7.3**^++ grams
same,prevention of swelling of primary or secondary paws,"[2]; up to day 14, rats then euthanized",failed to prevent swelling of either the primary or secondary paws
same,Spleen,[2]; [4],590.8 ± 82.1 mg
same,Thymus,[2]; [4],168.7 ± 44.6 mg
